Assays:
human MAT2A enzyme = human MAT2A enzyme (Homo sapiens (Human), UniProt P31153); experiment: In vitro enzymatic inhibition activity assay on MAT2A (PiColorLock phosphate detection); assay type: biochemical; conditions: purified human MAT2A 10 nM, ATP 50 μM, L-methionine 100 μM, 6 h at 23° C.; read-out: MAT2A inhibitory activity IC50
Summary of the method: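 IC50 came from an 8-point, 10-fold compound series that reduced phosphate release, measured by absorbance at 630 nm. Reactions ran 6 h at 23 °C with 10 nM human MAT2A, 50 μM ATP and 100 μM L-methionine in pH 7.5 Tris buffer containing Mg2+.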

[1] = In vivo pharmacokinetic study in CD-1 mice; conditions: male, mouse, single oral gavage dose of 10 mg/kg, plasma
Description: In vivo pharmacokinetic study in CD-1 mice
Twenty-four healthy adult male mice from Beijing Vital River Laboratory Animal Technology Co., Ltd. were used in the study.
CD-1 mice were administered with a single oral gavage dose of 10 mg/kg in a volume of 10 mL/kg at a concentration of 1 mg/mL.
The test article in this project is generally suspended in 0.5% hydroxypropylmethyl cellulose, 0.1% Tween 80 (W/V/V) aqueous solution at the concentration of 1 mg/mL.
Animals dosed by gavage were fasted overnight before the experiment from 16 h before dosing to 4 h after dosing. Blood was collected at 0.25, 0.5, 1, 2, 4, 6, 8, and 24 h after administration successively. The animals were lightly anesthetized with isoflurane. About 0.2 mL of whole blood was collected from the orbital venous plexus using a glass blood collection tube and placed in a sodium heparin anticoagulant tube. The sample was centrifuged at 5200 rpm for 5 min at 4° C. The plasma was transferred to a centrifuge tube and stored at −80° C. until analysis.
Analysis of plasma samples Test compounds and internal standards (warfarin or propranolol) were extracted from mouse plasma using an acetonitrile protein precipitation method and the extracts were analyzed by LC/MS/MS. The measured plasma concentration-time data of individual animals were analyzed using the non-compartmental model of WinNonlin (version 5.2.1, Pharsight) software to obtain the corresponding pharmacokinetic parameters: maximum (peak) plasma drug concentration Cmax; Time to peak Tmax; Half-life T1/2 and area under the plasma concentration-time curve extrapolated to infinite time AUC0-inf.

Chain of human MAT2A enzyme (P31153 whole entry): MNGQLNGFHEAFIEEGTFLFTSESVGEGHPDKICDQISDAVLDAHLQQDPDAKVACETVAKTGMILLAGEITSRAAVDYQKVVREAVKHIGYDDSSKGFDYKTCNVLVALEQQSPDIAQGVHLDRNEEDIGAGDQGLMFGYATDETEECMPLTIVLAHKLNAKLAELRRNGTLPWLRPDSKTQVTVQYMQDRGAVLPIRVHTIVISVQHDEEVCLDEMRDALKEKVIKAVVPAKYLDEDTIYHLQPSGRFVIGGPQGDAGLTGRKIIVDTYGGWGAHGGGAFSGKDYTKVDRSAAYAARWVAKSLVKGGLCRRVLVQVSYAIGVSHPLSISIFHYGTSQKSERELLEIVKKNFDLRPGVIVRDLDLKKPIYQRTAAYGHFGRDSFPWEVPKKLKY

Row | IC50 (human MAT2A enzyme) [nM] | AUC [1] [ng·h/mL] | Cmax [1] [ng/mL] | Tmax [1] [h] | half-life [1] [h] | Structure (SMILES)
1 | 0.91 | 37000 | 2640 | 6 | 6.51 | COC(=O)c1c(N)c2ccc(C(F)(F)F)cc2n(-c2ccccc2C)c1=O [Example 23, methyl 4-amino-7-trifluoromethyl-1-(2-methylphenyl)-2-oxo-1,2-dihydro quinoline-3-carboxylate]
2 | 1.24 | 591000 | 37500 | 4 | 9.25 | COC(=O)c1c(N)c2ccc(Br)cc2n(-c2ccc(N)cc2C)c1=O [Example 238, methyl 4-amino-1-(4-amino-2-methylphenyl)-7-bromo-2-oxo-1,2-dihydroquinoline-3-carboxylate]
3 | 0.76 | 32800 | 5060 | 2.08 | 4.09 | COC(=O)c1c(N)c2ccc(Br)cc2n(-c2ccc(N)nc2)c1=O [Example 180, methyl 4-amino-1-(6-aminopyridin-3-yl)-7-bromo-2-oxo-1,2-dihydroquinoline-3-carboxylate]
4 | 0.54 | 25300 | 1920 | 6 | 6.82 | COC(=O)c1c(N)c2ccc(Br)cc2n(-c2ccccc2)c1=O [Example 22, methyl 4-amino-7-bromo-2-oxo-1-phenyl-1,2-dihydroquinoline-3—carboxylate]
5 | 2.89 | 232000 | 28600 | 1 | 2.53 | COC(=O)c1c(N)c2ccc(Br)cc2n(-c2ccc(C)nc2)c1=O [Example 214, methyl 4-amino-7-bromo-1-(6-methylpyridin-3-yl)-2-oxo-1,2-dihydroquinoline-3-carboxylate]
6 | 7.3 | 24800 | 6690 | 0.42 | 3.88 | COC(=O)c1c(N)c2ccc(C(F)(F)F)cc2n(-c2cccc3cnccc23)c1=O [Example 88, methyl 4-amino-1-(isoquinolin-5-yl)-2-oxo-7-(trifluoromethyl)-1,2-dihydroquinoline-3-carboxylate]
7 | 6.06 |  |  |  |  | COC(=O)c1c(N)c2ccc(Br)cc2n(-c2ccccc2N)c1=O [Example 250, methyl 4-amino-1-(2-aminophenyl)-7-bromo-2-oxo-1,2-dihydroquinoline-3-carboxylate]
8 | 1.21 |  |  |  |  | COC(=O)c1c(N)c2ccc(Br)cc2n(-c2ccc(OC(F)F)cc2)c1=O [Example 83, methyl 4-amino-7-bromo-1-(4-((difluoromethyl)oxy)phenyl)-2-oxo-1,2-dihydroquinoline-3-carboxylate]
9 | 2.81 |  |  |  |  | COC(=O)c1c(N)c2ccc(C(F)(F)F)cc2n(-c2ccc3ccncc3c2)c1=O [Example 224, methyl 4-amino-1-(isoquinolin-7-yl)-2-oxo-7-(trifluoromethyl)-1,2-dihydroquinoline-3-carboxylate]
10 | 5.98 |  |  |  |  | COC(=O)c1c(N)c2ccc(I)cc2n(-c2ccccc2Cl)c1=O [Example 20, methyl 4-amino-7-iodo-1-(2-chlorophenyl)-2-oxo-1,2-dihydroquinoline-3-carboxylate]
11 | 1.58 |  |  |  |  | COC(=O)c1c(N)c2ccc(C(F)(F)F)cc2n(-c2ccc(OC(F)F)cc2)c1=O [Example 63, methyl 4-amino-1-(4-(difluoromethoxy)phenyl)-2-oxo-7-(trifluoromethyl)-1,2-dihydroquinoline-3-carboxylate]
12 | 0.97 |  |  |  |  | [2H]C([2H])([2H])OC(=O)c1c(N)c2ccc(C(F)(F)F)cc2n(-c2ccc(N)cc2)c1=O [Example 412, methyl-d3 4-amino-1-(4-aminophenyl)-7-(trifluoromethyl)-2-oxo-1,2-dihydroquinoline-3-carboxylate]
13 | 1.41 | 468000 | 18600 | 4 | 16.5 | COC(=O)c1c(N)c2ccc(OC(F)(F)F)cc2n(-c2ccc(N)cc2)c1=O [Example 379, methyl 4-amino-1-(4-aminophenyl)-2-oxo-7-(trifluoromethoxy)-1,2-dihydroquinoline-3-carboxylate]
14 | 4.06 |  |  |  |  | COC(=O)c1c(N)c2ccc(C(F)(F)F)cc2n(-c2ccc3c(c2)OCC3)c1=O [Example 111, methyl 4-amino-1-(2,3-dihydro-1-benzofuran-6-yl)-2-oxo-7-(trifluoromethyl)-1,2-dihydroquinoline-3-carboxylate]
15 | 4.03 |  |  |  |  | COC(=O)c1c(N)c2ccc(C(F)(F)F)cc2n(-c2ccc(OC)cc2C)c1=O [Example 80, methyl 4-amino-1-(4-methoxy-2-methylphenyl)-2-oxo-7-(trifluoromethyl)-1,2-dihydroquinoline-3-carboxylate]
16 | 2.29 | 452000 | 52800 | 1 | 6.81 | COC(=O)c1c(N)c2ccc(C(F)(F)F)nc2n(-c2ccc(N)cc2Cl)c1=O [Example 325, methyl 4-amino-1-(4-amino-2-chlorophenyl)-2-oxo-7-trifluoromethyl-1,2-dihydro-1,8-naphthyridine-3-carboxylate]
17 | 2.2 |  |  |  |  | COC(=O)c1c(N)c2ccc(C(F)(F)F)nc2n(-c2ccc(N)cc2C)c1=O [Example 282, methyl 4-amino-1-(4-amino-2-methylphenyl)-2-oxo-7-(trifluoromethyl)-1,2-dihydro-1,8-naphthyridine-3-carboxylate]
18 | 2.83 |  |  |  |  | COC(=O)c1c(N)c2ccc(C(F)(F)F)cc2n(-c2ccc(OC)nc2)c1=O [Example 212, methyl 4-amino-1-(6-methoxypyridin-3-yl)-2-oxo-7-(trifluoromethyl)-1,2-dihydroquinoline-3-carboxylate]
19 | 1.52 |  |  |  |  | COC(=O)c1c(N)c2ccc(Br)cc2n(-c2ccc(Br)cc2)c1=O [Example 107, methyl 4-amino-7-bromo-1-(4-bromophenyl)-2-oxo-1,2-dihydroquinoline-3-carboxylate]
20 | 1.14 |  |  |  |  | COC(=O)c1c(N)c2ccc(I)cc2n(-c2ccc(C(C)O)nc2)c1=O (stereo not drawn) [Example 307, methyl 4-amino-1-(6-(1-hydroxyethyl)pyridin-3-yl)-2-oxo-7-iodo-1,2-dihydroquinoline-3-carboxylate]
21 | 6.58 |  |  |  |  | COC(=O)c1c(N)c2ccc(C(F)(F)F)cc2n(-c2cccc(CO)c2)c1=O [Example 21, methyl 4-amino-1-(3-(hydroxymethyl)phenyl)-2-oxo-7-(trifluoromethyl)-1,2-dihydroquinoline-3-carboxylate]
22 | 2.42 |  |  |  |  | COC(=O)c1c(N)c2ccc(C(F)(F)F)nc2n(-c2ccc(N)nc2C)c1=O [Example 308, methyl 4-amino-1-(6-amino-2-methylpyridin-3-yl)-2-oxo-7-(trifluoromethyl)-1,2-dihydro-1,8-naphthyridine-3-carboxylate]
23 | 2.72 |  |  |  |  | COC(=O)c1c(N)c2ccc(Br)cc2n(-c2ccc(F)cc2)c1=O [Example 78, methyl 4-amino-7-bromo-1-(4-fluorophenyl)-2-oxo-1,2-dihydroquinoline-3-carboxylate]
24 | 1.31 |  |  |  |  | COC(=O)c1c(N)c2ccc(Br)nc2n(-c2ccc(C)nc2)c1=O [Example 258, methyl 4-amino-7-bromo-1-(6-methylpyridin-3-yl)-2-oxo-1,2-dihydro-1,8-naphthyridine-3-carboxylate]
25 | 2.34 |  |  |  |  | COC(=O)c1c(N)c2ccc(I)cc2n(-c2ccccc2C)c1=O [Example 19, methyl 4-amino-7-iodo-1-(2-methylphenyl)-2-oxo-1,2-dihydroquinoline-3-carboxylate]
26 | 0.53 |  |  |  |  | COC(=O)c1c(N)c2ccc(C(F)(F)F)nc2n(-c2ccc(N)cc2)c1=O [Example 274, methyl 4-amino-1-(4-aminophenyl)-2-oxo-7-(trifluoromethyl)-1,2-dihydro-1,8-naphthyridine-3-carboxylate]
27 |  | 44200 | 3080 | 6 | 8.88 | COC(=O)c1c(N)c2ccc(Cl)cc2n(-c2ccccc2)c1=O [Example 15, methyl 4-amino-7-chloro-2-oxo-1-phenyl-1,2-dihydroquinoline-3—carboxylate]
28 | 6.47 |  |  |  |  | COC(=O)c1c(N)c2ccc(C(F)(F)F)cc2n(-c2cccc3ccncc23)c1=O [Example 192, methyl 4-amino-1-(isoquinolin-8-yl)-2-oxo-7-(trifluoromethyl)-1,2-dihydro quinoline-3-carboxylate]
